Measurements reported in PubChem BioAssay AID686982.

Assays:
[1] = Plasmodium hepatic-stage parasite load reduction – cell-based, HepG2, luciferase, host viability, known kinase inhibitors, confirmation (AID 686982); conditions: P. berghei liver stage in HepG2, luciferase, 48 h; measured here: HepG2 viability, % of control; at 10 µM; stronger effect = lower value
[2] = system: P. berghei liver stage in HepG2, luciferase, 48 h; test: as above; conditions: at 10 µM; stronger effect = lower value

Fc1ccc(-c2c(-c3ccncc3)[nH]c3cccnc23)cc1
viability [1]: 163%
parasite load, % of control [2]: 1.19%

COc1cc[nH]c1C=C1C(=O)Nc2ccc(F)c(C#CC3(O)CCOCC3)c21
viability [1]: 111%
parasite load, % of control [2]: 1.05%

Cc1ccc2c(-c3ccnc(Nc4ccccc4)n3)c(-c3ccc(F)cc3)nn2n1
viability [1]: 206%
parasite load, % of control [2]: 1.15%
